Results from ChEMBL document CHEMBL3414495, “Multi-target tacrine-coumarin hybrids: cholinesterase and monoamine oxidase B inhibition properties against Alzheimer's disease” (Eur J Med Chem, 2015).
pIC50, pKi: −log10 of the molar value.

How the values were obtained:
Acetylcholinesterase [1] = target: T1, Acetylcholinesterase (Electrophorus electricus, UniProt O42275)
Description: Inhibition of electric eel AChE using acetylthiocholine iodide as substrate incubated for 6 mins prior to substrate addition measured after 60 to 180 secs by Ellman method

[2] = target: T2, Amine oxidase [flavin-containing] B (Homo sapiens, UniProt P27338)
T2 sequence (P27338 whole entry): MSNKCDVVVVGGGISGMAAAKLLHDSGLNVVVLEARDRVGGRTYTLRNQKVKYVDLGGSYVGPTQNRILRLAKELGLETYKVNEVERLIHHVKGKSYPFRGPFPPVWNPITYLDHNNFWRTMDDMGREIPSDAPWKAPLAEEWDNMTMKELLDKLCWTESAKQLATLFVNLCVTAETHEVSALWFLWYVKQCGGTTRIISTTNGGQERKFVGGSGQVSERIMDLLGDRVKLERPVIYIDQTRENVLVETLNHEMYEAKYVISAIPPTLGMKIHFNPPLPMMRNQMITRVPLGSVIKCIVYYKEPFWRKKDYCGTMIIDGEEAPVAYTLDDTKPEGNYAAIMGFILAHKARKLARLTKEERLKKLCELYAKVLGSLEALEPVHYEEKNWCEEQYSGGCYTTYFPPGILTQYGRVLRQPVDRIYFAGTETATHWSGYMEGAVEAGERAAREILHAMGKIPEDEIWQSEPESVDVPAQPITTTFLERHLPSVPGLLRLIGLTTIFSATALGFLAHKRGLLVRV
Description: Inhibition of human MAO-B using p-tyramine as substrate assessed as H2O2 production by amplex red assay

[3] = target: T3, Amine oxidase [flavin-containing] A (Homo sapiens, UniProt P21397); assay: Inhibition of human MAO-A using p-tyramine as substrate assessed as H2O2 production by amplex red assay
T3 sequence (P21397 whole entry): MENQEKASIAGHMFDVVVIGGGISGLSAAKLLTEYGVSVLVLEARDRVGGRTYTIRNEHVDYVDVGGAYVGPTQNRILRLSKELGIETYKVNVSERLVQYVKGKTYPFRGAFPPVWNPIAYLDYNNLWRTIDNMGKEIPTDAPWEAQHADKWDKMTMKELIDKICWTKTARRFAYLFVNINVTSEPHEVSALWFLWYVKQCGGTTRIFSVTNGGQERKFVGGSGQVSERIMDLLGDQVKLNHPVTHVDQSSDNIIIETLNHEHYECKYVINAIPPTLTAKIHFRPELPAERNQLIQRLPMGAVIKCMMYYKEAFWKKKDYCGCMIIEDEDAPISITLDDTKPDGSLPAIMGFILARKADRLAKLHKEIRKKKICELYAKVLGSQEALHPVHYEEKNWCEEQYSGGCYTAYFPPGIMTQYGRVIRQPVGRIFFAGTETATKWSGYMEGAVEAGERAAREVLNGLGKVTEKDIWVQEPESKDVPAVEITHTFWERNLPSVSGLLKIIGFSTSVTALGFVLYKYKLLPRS

Homo sapiens = organism: Homo sapiens; assay: Selectivity index, ratio of IC50 for human MAO-A to IC50 for human MAO-B
Cholinesterase [4] = target: Cholinesterase (Equus caballus, UniProt P81908)
Description: Inhibition of horse serum BuChE using S-butyrylthiocholine iodide as substrate incubated for 6 mins prior to substrate addition measured after 60 to 180 secs by Ellman method

in vitro = settings: PAMPA
Description: Permeability of the compound after 16 hrs by PAMPA

[5] = Cytotoxicity against human SH-SY5Y cells assessed as cell viability at 13 uM after 24 hrs by MTT assay; assay type: cell-based; settings: read-out: Activity
[6] = Cytotoxicity against human SH-SY5Y cells assessed as cell viability at […] after 24 hrs by MTT assay; assay type: cell-based; settings: read-out: Activity
Acetylcholinesterase [7] = target: T1, Acetylcholinesterase; assay: Mixed-type inhibition of electric eel AChE by Lineweaver-Burk plot analysis
Cholinesterase [8] = target: Cholinesterase (Homo sapiens, UniProt P06276); assay: Inhibition of human BuChE using S-butyrylthiocholine iodide as substrate incubated for 6 mins prior to substrate addition measured after 60 to 180 secs by Ellman method
[9] = target: T2, Amine oxidase [flavin-containing] B; assay: Competitive inhibition of human MAO-B using p-tyramine as substrate at 0.5 to 0.125 uM by double reciprocal Lineweaver-Burk plot analysis
Acetylcholinesterase [10] = target: Acetylcholinesterase (Homo sapiens, UniProt P22303); assay: Inhibition of human AChE using acetylthiocholine iodide as substrate incubated for 6 mins prior to substrate addition measured after 60 to 180 secs by Ellman method
[11] = target: T2, Amine oxidase [flavin-containing] B; assay: Reversible inhibition of human MAO-B at 100 times IC50 incubated for 30 mins followed by 100 fold dilution to IC50 by dilution assay relative to control; settings: 0.5 h
[12] = Cytotoxicity against human SH-SY5Y cells assessed as cell viability at 0.81 uM after 24 hrs by MTT assay; assay type: cell-based; settings: read-out: Activity
[13] = Cytotoxicity against human SH-SY5Y cells assessed as cell viability at 1.63 uM after 24 hrs by MTT assay; assay type: cell-based; settings: read-out: Activity
[14] = Cytotoxicity against human SH-SY5Y cells assessed as cell viability at 3.25 uM after 24 hrs by MTT assay; assay type: cell-based; settings: read-out: Activity
[15] = target: T3, Amine oxidase [flavin-containing] A; assay: Inhibition of human MAO-A using p-tyramine as substrate assessed as H2O2 production at 100 uM by amplex red assay
[16] = target: T3, Amine oxidase [flavin-containing] A; assay: Inhibition of human MAO-A using p-tyramine as substrate assessed as H2O2 production at 200 uM by amplex red assay
[17] = target: T2, Amine oxidase [flavin-containing] B; assay: Inhibition of MAO-B (unknown origin)
[18] = target: T2, Amine oxidase [flavin-containing] B; assay: Inhibition of human MAO-B using p-tyramine as substrate assessed as H2O2 production at 200 uM by amplex red assay

T1 sequence (O42275 whole entry): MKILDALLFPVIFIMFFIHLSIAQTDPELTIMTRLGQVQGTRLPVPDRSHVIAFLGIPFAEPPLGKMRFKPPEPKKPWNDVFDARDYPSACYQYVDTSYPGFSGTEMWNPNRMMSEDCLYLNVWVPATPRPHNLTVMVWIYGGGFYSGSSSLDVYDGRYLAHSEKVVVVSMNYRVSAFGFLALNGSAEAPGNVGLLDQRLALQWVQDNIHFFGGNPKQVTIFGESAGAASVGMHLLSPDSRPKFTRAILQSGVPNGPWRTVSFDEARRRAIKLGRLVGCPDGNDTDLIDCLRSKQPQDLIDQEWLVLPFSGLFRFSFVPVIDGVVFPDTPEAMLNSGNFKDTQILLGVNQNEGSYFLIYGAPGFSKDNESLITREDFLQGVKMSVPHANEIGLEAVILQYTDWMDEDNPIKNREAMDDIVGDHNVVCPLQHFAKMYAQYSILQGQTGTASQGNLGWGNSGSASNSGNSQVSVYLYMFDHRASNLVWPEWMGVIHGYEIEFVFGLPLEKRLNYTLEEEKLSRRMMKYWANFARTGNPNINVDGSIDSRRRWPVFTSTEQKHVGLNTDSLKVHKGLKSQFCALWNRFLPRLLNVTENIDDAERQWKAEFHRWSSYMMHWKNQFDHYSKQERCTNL
Chain of Cholinesterase (Equus caballus, UniProt P81908) (P81908 whole entry): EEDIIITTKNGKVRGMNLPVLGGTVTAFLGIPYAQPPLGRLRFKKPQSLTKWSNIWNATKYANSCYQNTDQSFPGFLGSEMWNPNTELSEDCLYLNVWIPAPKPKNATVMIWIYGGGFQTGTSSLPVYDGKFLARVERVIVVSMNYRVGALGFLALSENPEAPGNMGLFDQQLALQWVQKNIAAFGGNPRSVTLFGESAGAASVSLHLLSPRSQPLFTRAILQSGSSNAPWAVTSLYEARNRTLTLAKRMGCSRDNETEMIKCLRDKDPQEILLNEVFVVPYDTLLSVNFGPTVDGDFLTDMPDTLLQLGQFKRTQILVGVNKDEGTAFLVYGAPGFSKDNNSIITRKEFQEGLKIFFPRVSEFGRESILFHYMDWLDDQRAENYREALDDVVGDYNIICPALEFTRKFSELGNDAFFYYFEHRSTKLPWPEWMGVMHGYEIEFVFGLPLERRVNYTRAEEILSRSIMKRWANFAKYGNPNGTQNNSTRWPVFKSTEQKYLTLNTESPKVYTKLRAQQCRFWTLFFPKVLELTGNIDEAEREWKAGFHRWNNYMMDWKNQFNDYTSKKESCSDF
Chain of Acetylcholinesterase (Homo sapiens, UniProt P22303) (P22303 whole entry): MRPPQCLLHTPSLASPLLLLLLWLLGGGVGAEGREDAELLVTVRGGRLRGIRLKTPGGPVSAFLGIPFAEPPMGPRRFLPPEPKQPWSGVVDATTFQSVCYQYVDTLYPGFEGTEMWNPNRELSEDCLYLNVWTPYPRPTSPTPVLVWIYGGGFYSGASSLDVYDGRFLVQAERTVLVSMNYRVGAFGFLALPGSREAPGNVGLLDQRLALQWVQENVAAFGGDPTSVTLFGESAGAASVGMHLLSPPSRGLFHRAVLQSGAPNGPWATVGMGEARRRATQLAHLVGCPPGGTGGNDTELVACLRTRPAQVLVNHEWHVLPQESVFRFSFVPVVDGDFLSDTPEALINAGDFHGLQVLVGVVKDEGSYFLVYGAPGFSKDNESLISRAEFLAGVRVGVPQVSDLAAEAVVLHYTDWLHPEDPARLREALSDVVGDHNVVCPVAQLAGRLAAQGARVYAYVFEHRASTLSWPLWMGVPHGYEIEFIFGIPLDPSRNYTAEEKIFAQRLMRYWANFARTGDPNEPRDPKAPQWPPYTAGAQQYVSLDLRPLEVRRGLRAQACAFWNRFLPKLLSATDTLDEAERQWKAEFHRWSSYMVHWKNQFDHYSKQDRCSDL
Chain of Cholinesterase (Homo sapiens, UniProt P06276) (P06276 whole entry): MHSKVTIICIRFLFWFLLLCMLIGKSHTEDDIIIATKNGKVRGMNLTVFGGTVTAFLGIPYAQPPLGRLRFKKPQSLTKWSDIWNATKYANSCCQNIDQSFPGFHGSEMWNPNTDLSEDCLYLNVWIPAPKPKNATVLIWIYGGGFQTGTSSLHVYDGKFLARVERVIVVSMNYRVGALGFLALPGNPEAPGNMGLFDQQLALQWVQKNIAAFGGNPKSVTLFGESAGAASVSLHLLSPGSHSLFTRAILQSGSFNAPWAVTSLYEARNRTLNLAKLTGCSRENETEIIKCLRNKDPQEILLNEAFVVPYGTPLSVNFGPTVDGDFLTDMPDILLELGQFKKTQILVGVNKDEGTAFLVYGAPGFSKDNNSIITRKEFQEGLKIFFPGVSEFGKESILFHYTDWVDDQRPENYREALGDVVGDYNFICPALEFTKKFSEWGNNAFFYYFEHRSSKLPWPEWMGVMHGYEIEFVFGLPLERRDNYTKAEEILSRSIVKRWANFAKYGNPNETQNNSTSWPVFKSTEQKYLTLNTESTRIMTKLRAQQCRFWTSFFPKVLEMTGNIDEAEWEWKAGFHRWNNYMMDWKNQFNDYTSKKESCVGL

Structure (SMILES) | pIC50 (Acetylcholinesterase [1]) | pIC50 [2] | pIC50 [3] | Ratio IC50 (Homo sapiens) | pIC50 (Cholinesterase [4]) | Papp at 16 h (in vitro) | further results
CCOc1cc(=O)oc2cc(OCCN3CCN(CCCNc4c5c(nc6ccccc46)CCCC5)CC3)ccc12 | 7.29 | 4.59 | 4.10 | 3.05 | 7.06 | 2.74 ×10⁻⁶ cm/s | –
Cc1c(C)c2ccc(OCCN3CCN(CCCNc4c5c(nc6ccccc46)CCCC5)CC3)cc2oc1=O | 7.47 | – | 4.82 | 62.8 | – | 4.75 ×10⁻⁶ cm/s | viability at 24 h, 13 µM [5]: 77.1%; viability at 24 h, […] [6]: 85.7%; pKi (Acetylcholinesterase [7]): 7.46; pIC50 (Cholinesterase [8]): 6.95; inhibition (INH) [9]: Active; pIC50 (Acetylcholinesterase [10]): 7.79; inhibition (INH) [11]: 79%; viability at 24 h, 0.81 µM [12]: 101%; viability at 24 h, 1.63 µM [13]: 96.6%; viability at 24 h, 3.25 µM [14]: 91.1%
O=c1cc(C(F)(F)F)c2ccc(OCCN3CCN(CCCNc4c5c(nc6ccccc46)CCCC5)CC3)cc2o1 | 7.17 | 4.54 | – | > 3.48 | 6.83 | 5.58 ×10⁻⁶ cm/s | inhibition (INH) [15]: Not Active
O=c1ccc2ccc(OCCCCN3CCN(CCNc4c5c(nc6ccccc46)CCCC5)CC3)cc2o1 | 7.04 | 6.11 | – | > 256 | 7.68 | 5.23 ×10⁻⁶ cm/s | inhibition (INH) [16]: Not Active
O=c1ccc2ccc(OCCCCN3CCN(CCCNc4c5c(nc6ccccc46)CCCC5)CC3)cc2o1 | 7.44 | 5.46 | – | > 58 | 7.64 | 2.04 ×10⁻⁶ cm/s | inhibition (INH) [16]: Not Active
Cc1cc(=O)oc2cc(OCCN3CCN(CCCNc4c5c(nc6ccccc46)CCCC5)CC3)ccc12 | 7.41 | 5.75 | 4.18 | 37.7 | 7.29 | 1.9 ×10⁻⁶ cm/s | –
O=c1ccc2ccc(OCCCCCN3CCN(CCCNc4c5c(nc6ccccc46)CCCC5)CC3)cc2o1 | 7.32 | 5.64 | 4.99 | 4.52 | 7.38 | 2.37 ×10⁻⁶ cm/s | –
O=c1ccc2ccc(OCCCCCN3CCN(CCNc4c5c(nc6ccccc46)CCCC5)CC3)cc2o1 | 6.86 | 5.80 | 5.04 | 5.77 | 7.49 | 6.5 ×10⁻⁶ cm/s | –
O=c1ccc2ccc(OCCCN3CCN(CCNc4c5c(nc6ccccc46)CCCC5)CC3)cc2o1 | 7.32 | 5.63 | – | > 84.4 | 7.79 | 3.43 ×10⁻⁶ cm/s | inhibition (INH) [16]: Not Active
O=c1ccc2ccc(OCCCCCCN3CCN(CCNc4c5c(nc6ccccc46)CCCC5)CC3)cc2o1 | 6.48 | 5.28 | 5.22 | 1.14 | 7.23 | 6.96 ×10⁻⁶ cm/s | –
COc1cc(=O)oc2cc(OCCN3CCN(CCCNc4c5c(nc6ccccc46)CCCC5)CC3)ccc12 | 7.35 | 5.24 | – | > 17.3 | 6.94 | 1.96 ×10⁻⁶ cm/s | inhibition (INH) [15]: Not Active
O=c1ccc2ccc(OCCCCCCN3CCN(CCCNc4c5c(nc6ccccc46)CCCC5)CC3)cc2o1 | 7.18 | 5.02 | 5.22 | 0.64 | 7.41 | 3.4 ×10⁻⁶ cm/s | –
O=c1ccc2ccc(OCCN3CCN(CCCNc4c5c(nc6ccccc46)CCCC5)CC3)cc2o1 | 7.75 | 5.70 | – | > 100 | 7.42 | 1.21 ×10⁻⁶ cm/s | inhibition (INH) [16]: Not Active
Nc1cc(=O)oc2cc(OCCN3CCN(CCCNc4c5c(nc6ccccc46)CCCC5)CC3)ccc12 | 7.41 | 4.42 | – | > 2.63 | 7.15 | 0.78 ×10⁻⁶ cm/s | inhibition (INH) [15]: Not Active
Cc1cc2ccc(OCCN3CCN(CCCNc4c5c(nc6ccccc46)CCCC5)CC3)cc2oc1=O | 7.25 | 6.27 | – | > 185 | 7.26 | 2.95 ×10⁻⁶ cm/s | inhibition (INH) [15]: Not Active
Cc1c(Cl)c(=O)oc2cc(OCCN3CCN(CCCNc4c5c(nc6ccccc46)CCCC5)CC3)ccc12 | 7.50 | 6.15 | 4.28 | 75.7 | 7.14 | 5.37 ×10⁻⁶ cm/s | pIC50 (Cholinesterase [8]): 6.91; pIC50 (Acetylcholinesterase [10]): 7.61
O=c1ccc2ccc(OCCCN3CCN(CCCNc4c5c(nc6ccccc46)CCCC5)CC3)cc2o1 | 7.62 | 5.65 | – | > 88.5 | 7.50 | 1.45 ×10⁻⁶ cm/s | inhibition (INH) [16]: Not Active
O=c1ccc2ccc(OCCN3CCN(CCNc4c5c(nc6ccccc46)CCCC5)CC3)cc2o1 | 7.16 | 5.34 | – | > 43.9 | 7.36 | 2.13 ×10⁻⁶ cm/s | inhibition (INH) [16]: Not Active
O=c1oc2cc(OCCN3CCN(CCCNc4c5c(nc6ccccc46)CCCC5)CC3)ccc2c2c1CCCC2 | 6.84 | 5.82 | 4.66 | 14.4 | 6.80 | 3.01 ×10⁻⁶ cm/s | –
Cc1c(C)c2ccc(OCc3nnc(C(C)C)s3)cc2oc1=O [ATIBEPRONE] | – | – | – | – | – | – | pIC50 [17]: 9.05
O=c1cc(-c2ccccc2)c2ccc(OCCN3CCN(CCCNc4c5c(nc6ccccc46)CCCC5)CC3)cc2o1 | 6.71 | – | – | – | 6.67 | 7.59 ×10⁻⁶ cm/s | inhibition (INH) [15]: Not Active; inhibition (INH) [18]: Not Active
